Experimental data as given in ChEMBL document CHEMBL3885881, “DrugMatrix”.

Species on record: Rattus norvegicus
Assay: DrugMatrix - Regimen: Daily Repeat
Type: toxicity, organism-based, Sprague-Dawley
Parameters: regimen Daily Repeat, gender Male, age 6-8 weeks
Settings: in vivo, po, route oral GAVAGE, […]; for ABSOLUTE BASOPHIL / ABSOLUTE EOSINOPHIL / ABSOLUTE LYMPHOCYTE / ABSOLUTE MONOCYTE / ABSOLUTE SEGMENTED NEUTROPHIL / BASOPHIL / EOSINOPHIL / ERYTHROCYTE COUNT / HEMATOCRIT / HEMOGLOBIN / LEUKOCYTE COUNT / LYMPHOCYTE / MEAN CORPUSCULAR HEMOGLOBIN / MEAN CORPUSCULAR HEMOGLOBIN CONCENTRATION / MEAN CORPUSCULAR VOLUME / MONOCYTE / NEUTROPHIL / NUCLEATED RED BLOOD CELLS / PLATELET COUNT: tissue Blood; for ALANINE AMINOTRANSFERASE / ALBUMIN / ALKALINE PHOSPHATASE / ASPARTATE AMINOTRANSFERASE / BLOOD UREA NITROGEN / CARBON DIOXIDE / CHLORIDE / CHOLESTEROL / CREATINE PHOSPHOKINASE / CREATININE / GLUCOSE / LACTATE DEHYDROGENASE / LIPASE / PHOSPHORUS / POTASSIUM / SODIUM / TOTAL BILIRUBIN / TOTAL PROTEIN / URIC ACID: tissue Plasma
[1] = 280 mg/kg, 120 h, dose level High, time 5 day
[2] = 72 h, dose 2.8 mg/Kg, dose level Low, time 3 day
[3] = 120 h, dose 2.8 mg/Kg, dose level Low, time 5 day

## CC/C(=C(/CC)c1ccc(O)cc1)c1ccc(O)cc1 [DIETHYLSTILBESTROL]
[1]
  ABSOLUTE BASOPHIL: 0 CELLS/uL
  ABSOLUTE EOSINOPHIL: 0 CELLS/uL
  ABSOLUTE LYMPHOCYTE: 5802 CELLS/uL
  ABSOLUTE MONOCYTE: 16.67 CELLS/uL
  ABSOLUTE SEGMENTED NEUTROPHIL: 514.67 CELLS/uL
  BASOPHIL: 0%
  EOSINOPHIL: 0%
  ERYTHROCYTE COUNT: 5.3 x10E6/uL
  HEMATOCRIT: 33.4%
  HEMOGLOBIN: 12.67 G/DL
  LEUKOCYTE COUNT: 6.33 x10E3/uL
  LYMPHOCYTE: 91.33%
  MEAN CORPUSCULAR HEMOGLOBIN: 23.9 pg
  MEAN CORPUSCULAR HEMOGLOBIN CONCENTRATION: 37.97 G/DL
  MEAN CORPUSCULAR VOLUME: 62.97 fL
  MONOCYTE: 0.33%
  NEUTROPHIL: 8.33%
  NUCLEATED RED BLOOD CELLS: 0.33 /100WBC
  PLATELET COUNT: 1806.33 x10E3/uL
  ALANINE AMINOTRANSFERASE: 47.33 u/L
  ALBUMIN: 3.6 G/DL
  ALKALINE PHOSPHATASE: 594.67 u/L
  ASPARTATE AMINOTRANSFERASE: 59 u/L
  BLOOD UREA NITROGEN: 14 mg/dL
  CARBON DIOXIDE: 28.33 mmol/L
  CHLORIDE: 100 MEQ/L
  CHOLESTEROL: 35 mg/dL
  CREATINE PHOSPHOKINASE: 88.33 u/L
  CREATININE: 0.3 mg/dL
  GLUCOSE: 144.67 mg/dL
  LACTATE DEHYDROGENASE: 47.33 u/L
  LIPASE: 9 u/L
  PHOSPHORUS: 9.33 mg/dL
  POTASSIUM: 5.01 MEQ/L
  SODIUM: 147.6 MEQ/L
  TOTAL BILIRUBIN: 0.6 mg/dL
  TOTAL PROTEIN: 6.27 G/DL
  URIC ACID: 0.3 mg/dL
[2]
  ABSOLUTE BASOPHIL: 0 CELLS/uL
  ABSOLUTE EOSINOPHIL: 0 CELLS/uL
  ABSOLUTE LYMPHOCYTE: 8607.33 CELLS/uL
  ABSOLUTE MONOCYTE: 102 CELLS/uL
  ABSOLUTE SEGMENTED NEUTROPHIL: 1057.33 CELLS/uL
  BASOPHIL: 0%
  EOSINOPHIL: 0%
  ERYTHROCYTE COUNT: 5.52 x10E6/uL
  HEMATOCRIT: 33.53%
  HEMOGLOBIN: 13.07 G/DL
  LEUKOCYTE COUNT: 9.77 x10E3/uL
  LYMPHOCYTE: 88%
  MEAN CORPUSCULAR HEMOGLOBIN: 23.73 pg
  MEAN CORPUSCULAR HEMOGLOBIN CONCENTRATION: 39.03 G/DL
  MEAN CORPUSCULAR VOLUME: 60.87 fL
  MONOCYTE: 1%
  NEUTROPHIL: 11%
  NUCLEATED RED BLOOD CELLS: 0 /100WBC
  PLATELET COUNT: 1167 x10E3/uL
  ALANINE AMINOTRANSFERASE: 57.33 u/L
  ALBUMIN: 3.83 G/DL
  ALKALINE PHOSPHATASE: 627.67 u/L
  ASPARTATE AMINOTRANSFERASE: 71 u/L
  BLOOD UREA NITROGEN: 7.67 mg/dL
  CARBON DIOXIDE: 26.67 mmol/L
  CHLORIDE: 105.33 MEQ/L
  CHOLESTEROL: 24.33 mg/dL
  CREATINE PHOSPHOKINASE: 222.33 u/L
  CREATININE: 0.12 mg/dL
  GLUCOSE: 155.33 mg/dL
  LACTATE DEHYDROGENASE: 64 u/L
  LIPASE: 8 u/L
  PHOSPHORUS: 9.27 mg/dL
  POTASSIUM: 5.23 MEQ/L
  SODIUM: 147.13 MEQ/L
  TOTAL BILIRUBIN: 0.13 mg/dL
  TOTAL PROTEIN: 5.6 G/DL
  URIC ACID: 0.6 mg/dL
[3]
  ABSOLUTE BASOPHIL: 0 CELLS/uL
  ABSOLUTE EOSINOPHIL: 46 CELLS/uL
  ABSOLUTE LYMPHOCYTE: 6817.67 CELLS/uL
  ABSOLUTE MONOCYTE: 68 CELLS/uL
  ABSOLUTE SEGMENTED NEUTROPHIL: 335 CELLS/uL
  BASOPHIL: 0%
  EOSINOPHIL: 0.67%
  ERYTHROCYTE COUNT: 5.68 x10E6/uL
  HEMATOCRIT: 36.33%
  HEMOGLOBIN: 13.8 G/DL
  LEUKOCYTE COUNT: 7.27 x10E3/uL
  LYMPHOCYTE: 93.33%
  MEAN CORPUSCULAR HEMOGLOBIN: 24.3 pg
  MEAN CORPUSCULAR HEMOGLOBIN CONCENTRATION: 38.03 G/DL
  MEAN CORPUSCULAR VOLUME: 64 fL
  MONOCYTE: 0.67%
  NEUTROPHIL: 5.33%
  NUCLEATED RED BLOOD CELLS: 0.33 /100WBC
  PLATELET COUNT: 1219.67 x10E3/uL
  ALANINE AMINOTRANSFERASE: 60.67 u/L
  ALBUMIN: 3.7 G/DL
  ALKALINE PHOSPHATASE: 729.67 u/L
  ASPARTATE AMINOTRANSFERASE: 65.67 u/L
  BLOOD UREA NITROGEN: 11.33 mg/dL
  CARBON DIOXIDE: 26.33 mmol/L
  CHLORIDE: 103.33 MEQ/L
  CHOLESTEROL: 19.33 mg/dL
  CREATINE PHOSPHOKINASE: 162.33 u/L
  CREATININE: 0.19 mg/dL
  GLUCOSE: 151.33 mg/dL
  LACTATE DEHYDROGENASE: 62 u/L
  LIPASE: 9.33 u/L
  PHOSPHORUS: 8.9 mg/dL
  POTASSIUM: 4.57 MEQ/L
  SODIUM: 146.9 MEQ/L
  TOTAL BILIRUBIN: 0.13 mg/dL
  TOTAL PROTEIN: 6.03 G/DL
  URIC ACID: 0.5 mg/dL
